Measurements as given in patent publication US6737383B1, “Herbicidal oxadiazolidines” (priority 1999, dated 2004).

How the values were obtained:
[1] = system: crabgrass; experiment: Test B pre/postemergence crabgrass; assay type: in vivo, Digitaria sanguinalis
Summary of the method: (§1)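 Response is a visual 0-to-10 score relative to untreated plants, where 0 means no effect and 10 means complete control, taken twelve to sixteen days after application. Treatments went onto soil at planting and onto foliage of 1- to 4-leaf plants, using a surfactant-containing non-phytotoxic solvent.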

[2] = system: morningglory; experiment: Test B pre/postemergence morningglory; assay type: in vivo, Ipomoea hederacea; conditions: for Plant response rating, Morningglory: scale of 0 to 10 where 0 is no effect and 10 is complete control
Summary of the method: as §1

[3] = system: soybean; experiment: Test B pre/postemergence soybean; assay type: in vivo, Glycine max; conditions: for Plant response rating, Soybean: scale of 0 to 10 where 0 is no effect and 10 is complete control
Summary of the method: as §1

[4] = system: rice; experiment: Test B flood test rice; assay type: in vivo, Oryza sativa
Summary of the method: (§2)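 Plants were grown to the 2-leaf stage before treatment with test chemical, then held in a greenhouse for twelve to sixteen days. Injury was visually rated against untreated controls on a 0–10 scale, where 0 is no effect and 10 is complete control.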

[5] = system: purple nutsedge; experiment: Test B pre/postemergence purple nutsedge; assay type: in vivo, Cyperus rotundus; conditions: for Plant response rating, Nutsedge: scale of 0 to 10 where 0 is no effect and 10 is complete control
Summary of the method: as §1

[6] = system: wild oat; experiment: Test B pre/postemergence wild oat; assay type: in vivo, Avena fatua; conditions: for Plant response rating, Wild oats: scale of 0 to 10 where 0 is no effect and 10 is complete control
Summary of the method: as §1

[7] = system: smallflower flatsedge; experiment: Test B flood test smallflower flatsedge; assay type: in vivo, Cyperus difformis
Summary of the method: as §2

[8] = system: wheat; experiment: Test B pre/postemergence wheat; assay type: in vivo, Triticum aestivum; conditions: for Plant response rating, Wheat: scale of 0 to 10 where 0 is no effect and 10 is complete control
Summary of the method: as §1

[9] = system: duck salad; experiment: Test B flood test duck salad; assay type: in vivo, Heteranthera limosa
Summary of the method: as §2

[10] = system: bedstraw; experiment: Test B pre/postemergence bedstraw; assay type: in vivo, Galium aparine; conditions: scale of 0 to 10 where 0 is no effect and 10 is complete control; for Plant response rating, Bedstraw: Preemergence
Summary of the method: as §1

[11] = system: pigweed; experiment: Test B pre/postemergence pigweed; assay type: in vivo, Amaranthus retroflexus; conditions: for Plant response rating, Redroot pigweed: scale of 0 to 10 where 0 is no effect and 10 is complete control
Summary of the method: as §1

[12] = system: rape; experiment: Test B pre/postemergence rape; assay type: in vivo, Brassica napus; conditions: for Plant response rating, Rape: scale of 0 to 10 where 0 is no effect and 10 is complete control
Summary of the method: as §1

[13] = system: velvetleaf; experiment: Test B pre/postemergence velvetleaf; assay type: in vivo, Abutilon theophrasti; conditions: for Plant response rating, Velvetleaf: scale of 0 to 10 where 0 is no effect and 10 is complete control
Summary of the method: as §1

[14] = system: corn; experiment: Test B pre/postemergence corn; assay type: in vivo, Zea mays
Summary of the method: as §1

[15] = system: giant foxtail; experiment: Test B pre/postemergence giant foxtail; assay type: in vivo, Setaria faberii
Summary of the method: as §1

[16] = system: cocklebur; experiment: Test B pre/postemergence cocklebur; assay type: in vivo, Xanthium strumarium
Summary of the method: as §1

[17] = Postemergence, Rate 250 g/ha, scale 0 to 10
[18] = Postemergence, Rate 500 g/ha, scale of 0 to 10 where 0 is no effect and 10 is complete control
[19] = Preemergence, Rate 62 g/ha, scale of 0 to 10 where 0 is no effect and 10 is complete control
[20] = Preemergence, Rate 125 g/ha, scale of 0 to 10 where 0 is no effect and 10 is complete control
[21] = Preemergence, Rate 250 g/ha, scale 0 to 10, 0 is no effect, 10 is complete control
[22] = Preemergence, Rate 500 g/ha, scale 0 to 10, 0 is no effect, 10 is complete control
[23] = Rate 62 g/ha, Postemergence, scale 0 to 10 (0 no effect, 10 complete control)
[24] = Rate 125 g/ha, Postemergence, scale 0 to 10, 0 is no effect, 10 is complete control
[25] = Rate 62 g/ha, flood test species, Pre-emergence, visual evaluation after twelve to sixteen days
[26] = Rate 125 g/ha, under heading Pre-emergence, flood test species, visual evaluation after twelve to sixteen days
[27] = Rate 250 g/ha, Pre-emergence (flood test species), scale 0 to 10, 0 is no effect, 10 is complete control
[28] = Rate 500 g/ha, Pre-emergence, flood test species, scale 0 to 10 (0 no effect, 10 complete control)

For `CC[Si](C)(C)Cn1c(=O)on(C(=O)N(c2ccc(Cl)cc2)C(C)C)c1=O` [Compound 460], the “Crabgrass plant response rating” value [1, 17] was 9, the “Crabgrass plant response rating” value [1, 18] was 9 and the “Plant response rating, Crabgrass” value [1, 19] was 0. For the same compound, the “Plant response rating, Crabgrass” value [1, 20] was 1, the “Crabgrass plant response rating” value [1, 21] was 6 and the “Crabgrass plant response rating” value [1, 22] was 9. For the same compound, the “Crabgrass plant response rating” value [1, 23] was 3, the “Crabgrass plant response rating” value [1, 24] was 6 and the “Morningglory plant response rating” value [2, 17] was 7. For the same compound, the “Plant response rating, Morningglory” value ([2]; Preemergence, Rate 62 g/ha) was 0, the “Plant response rating, Morningglory” value ([2]; Preemergence, Rate 125 g/ha) was 0 and the “Morningglory plant response rating” value [2, 21] was 0. The “Morningglory plant response rating” value [2, 22] was 0, the “Morningglory plant response rating” value [2, 23] was 7 and the “Morningglory plant response rating” value [2, 24] was 7. The “Soybean plant response rating” value [3, 17] was 4, the “Plant response rating, Soybean” value ([3]; Preemergence, Rate 62 g/ha) was 0 and the “Plant response rating, Soybean” value ([3]; Preemergence, Rate 125 g/ha) was 0. The “Soybean plant response rating” value [3, 21] was 0, the “Soybean plant response rating” value [3, 22] was 0 and the “Soybean plant response rating” value [3, 23] was 3. The “Soybean plant response rating” value [3, 24] was 3, the “Plant response rating, Rice (0 to 10 scale, 0 is no effect, 10 is complete control)” value [4, 25] was 0 and the “Rice plant response rating (0 to 10 scale, 0 is no effect, 10 is complete control)” value [4, 26] was 0. The “Rice plant response rating” value [4, 27] was 0, the “Rice plant response rating” value [4, 28] was 0 and the “Nutsedge plant response rating” value [5, 17] was 0. For the same compound, the “Plant response rating, Nutsedge” value ([5]; Preemergence, Rate 62 g/ha) was 0, the “Plant response rating, Nutsedge” value ([5]; Preemergence, Rate 125 g/ha) was 0 and the “Nutsedge plant response rating” value [5, 21] was 0. For the same compound, the “Nutsedge plant response rating” value [5, 22] was 0, the “Nutsedge plant response rating” value [5, 23] was 0 and the “Nutsedge plant response rating” value [5, 24] was 0. For the same compound, the “Wild oats plant response rating” value [6, 17] was 0, the “Plant response rating, Wild oats” value ([6]; Preemergence, Rate 62 g/ha) was 0 and the “Plant response rating, Wild oats” value ([6]; Preemergence, Rate 125 g/ha) was 0. For the same compound, the “Wild oats plant response rating” value [6, 21] was 0, the “Wild oats plant response rating” value [6, 22] was 0 and the “Wild oats plant response rating” value [6, 23] was 0. The “Wild oats plant response rating” value [6, 24] was 0, the “Plant response rating, S. Flatsedge (0 to 10 scale, 0 is no effect, 10 is complete control)” value [7, 25] was 0 and the “S. Flatsedge plant response rating (0 to 10 scale, 0 is no effect, 10 is complete control)” value [7, 26] was 0. For the same compound, the “S. Flatsedge plant response rating” value [7, 27] was 0, the “S. Flatsedge plant response rating” value [7, 28] was 0 and the “Wheat plant response rating” value [8, 17] was 0. For the same compound, the “Plant response rating, Wheat” value ([8]; Preemergence, Rate 62 g/ha) was 0, the “Plant response rating, Wheat” value ([8]; Preemergence, Rate 125 g/ha) was 0 and the “Wheat plant response rating” value [8, 21] was 0. For the same compound, the “Wheat plant response rating” value [8, 22] was 0, the “Wheat plant response rating” value [8, 23] was 0 and the “Wheat plant response rating” value [8, 24] was 0. For the same compound, the “Plant response rating, Ducksalad (0 to 10 scale, 0 is no effect, 10 is complete control)” value [9, 25] was 0, the “Ducksalad plant response rating (0 to 10 scale, 0 is no effect, 10 is complete control)” value [9, 26] was 0 and the “Ducksalad plant response rating” value [9, 27] was 0. For the same compound, the “Ducksalad plant response rating” value [9, 28] was 0, the “Bedstraw plant response rating” value ([10]; Postemergence, Rate 500 g/ha) was 8 and the “Plant response rating, Bedstraw” value ([10]; Rate 62 g/ha) was 0. The “Plant response rating, Bedstraw” value ([10]; Rate 125 g/ha) was 0, the “Redroot pigweed plant response rating” value [11, 17] was 1 and the “Plant response rating, Redroot pigweed” value ([11]; Preemergence, Rate 62 g/ha) was 0. For the same compound, the “Plant response rating, Redroot pigweed” value ([11]; Preemergence, Rate 125 g/ha) was 0, the “Redroot pigweed plant response rating” value [11, 21] was 0 and the “Redroot pigweed plant response rating” value [11, 22] was 0. The “Redroot pigweed plant response rating” value [11, 23] was 0, the “Redroot pigweed plant response rating” value [11, 24] was 0 and the “Rape plant response rating” value [12, 17] was 0. For the same compound, the “Plant response rating, Rape” value ([12]; Preemergence, Rate 62 g/ha) was 0, the “Plant response rating, Rape” value ([12]; Preemergence, Rate 125 g/ha) was 0 and the “Rape plant response rating” value [12, 21] was 0. The “Rape plant response rating” value [12, 22] was 0, the “Rape plant response rating” value [12, 23] was 0 and the “Rape plant response rating” value [12, 24] was 0. For the same compound, the “Velvetleaf plant response rating” value [13, 17] was 0, the “Plant response rating, Velvetleaf” value ([13]; Preemergence, Rate 62 g/ha) was 0 and the “Plant response rating, Velvetleaf” value ([13]; Preemergence, Rate 125 g/ha) was 0. For the same compound, the “Velvetleaf plant response rating” value [13, 21] was 0, the “Velvetleaf plant response rating” value [13, 22] was 0 and the “Velvetleaf plant response rating” value [13, 23] was 0. The “Velvetleaf plant response rating” value [13, 24] was 0, the “Corn plant response rating” value [14, 17] was 0 and the “Corn plant response rating” value [14, 18] was 0. The “Plant response rating, Corn” value [14, 19] was 0, the “Plant response rating, Corn” value [14, 20] was 0 and the “Corn plant response rating” value [14, 21] was 0. The “Corn plant response rating” value [14, 22] was 2, the “Corn plant response rating” value [14, 23] was 0 and the “Corn plant response rating” value [14, 24] was 0. The “Giant foxtail plant response rating” value [15, 17] was 0, the “Giant foxtail plant response rating” value [15, 18] was 1 and the “Plant response rating, Giant foxtail” value [15, 19] was 0. The “Plant response rating, Giant foxtail” value [15, 20] was 6, the “Giant foxtail plant response rating” value [15, 21] was 8 and the “Giant foxtail plant response rating” value [15, 22] was 9. For the same compound, the “Giant foxtail plant response rating” value [15, 23] was 0, the “Giant foxtail plant response rating” value [15, 24] was 0 and the “Cocklebur plant response rating” value [16, 17] was 0. For the same compound, the “Cocklebur plant response rating” value [16, 18] was 0, the “Plant response rating, Cocklebur” value [16, 19] was 0 and the “Plant response rating, Cocklebur” value [16, 20] was 0. The “Cocklebur plant response rating” value [16, 21] was 0, the “Cocklebur plant response rating” value [16, 22] was 0 and the “Cocklebur plant response rating” value [16, 23] was 0. The “Cocklebur plant response rating” value [16, 24] was 0.
